Test results published in PubChem BioAssay AID1224921 (Broad Institute, 2016).
Calls of active or inactive are those of the source. No rule for the calls is given here.

These compounds were tested on Clostridioides difficile clinical isolate growth, OD600, 24 h (assay: C. difficile growth inhibition, confirmation, 4-point retest (AID 1224921)).

Compound | AC50
CO[C@@H](CN(C)C(=O)C1CCOCC1)[C@@H](C)CN(C(=O)Nc1ccc(C(F)(F)F)cc1)[C@@H](C)CO | 3.66 µM
CCNC(=O)C[C@H]1CC[C@@H]2[C@H](COC[C@@H](O)CN2C(=O)Nc2ccc(Cl)c(Cl)c2)O1 | 4.25 µM
O=C(NCC[C@H]1CC[C@H](NS(=O)(=O)c2ccc(F)cc2)[C@@H](CO)O1)Nc1ccc(Cl)cc1 | 16.7 µM
CO[C@H](CN(C)S(=O)(=O)c1cn(C)cn1)[C@H](C)CN(C(=O)Nc1ccc(C(F)(F)F)cc1)[C@H](C)CO | 6.25 µM
O=C(C[C@H]1CC[C@H]2[C@@H](COC[C@@H](O)CN2C(=O)Nc2ccc(C(F)(F)F)cc2)O1)NCCc1ccncc1 | 3.88 µM
CO[C@@H](CN(C)C(=O)C1CC1)[C@H](C)CN(C(=O)Nc1ccc(C(F)(F)F)cc1)[C@@H](C)CO | 3.04 µM
O=C(C[C@H]1CC[C@@H]2[C@H](COC[C@H](O)CN2C(=O)Nc2ccc(Cl)c(Cl)c2)O1)NCc1ccccc1 | < 1.95 µM
O=C(C[C@H]1CC[C@H]2[C@@H](COC[C@@H](O)CN2C(=O)Nc2cc(Cl)cc(Cl)c2)O1)N1CCOCC1 | 9.57 µM
O=C(C[C@@H]1CC[C@H]2[C@@H](COC[C@H](O)CN2C(=O)Nc2ccc(Cl)c(Cl)c2)O1)NCc1ccncc1 | 3.77 µM
COc1ccc(CN(C)C[C@H]2Oc3c(NC(=O)Nc4ccc(C(F)(F)F)cc4)cccc3C(=O)N([C@@H](C)CO)C[C@H]2C)cc1 | 1.65 µM
CCCNC(=O)C[C@H]1CC[C@@H]2[C@H](COC[C@H](O)CN2C(=O)Nc2ccc(Cl)c(Cl)c2)O1 | 3.77 µM
O=C(C[C@@H]1CC[C@@H]2[C@H](COC[C@@H](O)CN2C(=O)Nc2ccc(Cl)c(Cl)c2)O1)NCc1ccc(F)cc1 | 1.87 µM
O=C(C[C@H]1CC[C@H]2[C@@H](COC[C@@H](O)CN2C(=O)Nc2ccc(Cl)c(Cl)c2)O1)NCc1ccc(Cl)c(Cl)c1 | 1.08 µM
COc1ccc(NC(=O)Nc2cccc3c2O[C@H](CN(C)Cc2ccc(C(F)(F)F)cc2)[C@H](C)CN([C@@H](C)CO)C3=O)cc1 | 15.9 µM
O=C(C[C@@H]1CC[C@H]2[C@@H](COC[C@@H](O)CN2C(=O)Nc2ccc(Cl)c(Cl)c2)O1)NCc1ccc(Cl)cc1 | 1.04 µM
CO[C@@H]1CN(C)C(=O)c2ccc(NC(=O)C3CCC3)cc2OC[C@@H](C)N(C(=O)Nc2ccc(C(F)(F)F)cc2)C[C@H]1C | 11.6 µM
CC(=O)N[C@@H]1CC[C@@H](CCNC(=O)Nc2ccc(C(F)(F)F)cc2)O[C@@H]1CO | 8.39 µM
C[C@H](NC(=O)C[C@@H]1CC[C@@H]2[C@H](COC[C@H](O)CN2C(=O)Nc2cccc(Cl)c2)O1)c1ccccc1 | 14.4 µM
O=C(C[C@@H]1CC[C@@H]2[C@H](COC[C@H](O)CN2C(=O)Nc2ccc(C(F)(F)F)cc2)O1)NC1Cc2ccccc2C1 | 19 µM
O=C(C[C@@H]1CC[C@H]2[C@@H](COC[C@@H](O)CN2C(=O)Nc2cc(Cl)cc(Cl)c2)O1)NCC1CC1 | 16.2 µM
CNC[C@@H]1OCCCC[C@H](C)Oc2ccc(NC(=O)Nc3ccc(C(F)(F)F)cc3)cc2C(=O)N([C@H](C)CO)C[C@H]1C | 19.4 µM
Cc1ccc(S(=O)(=O)Nc2ccc3c(c2)C(=O)N([C@@H](C)CO)C[C@H](C)[C@@H](CN(C)Cc2ccc4c(c2)OCO4)OCCCC[C@@H](C)O3)cc1 | 7.88 µM
C[C@H]1CN([C@@H](C)CO)S(=O)(=O)c2ccc(C#Cc3cccc(F)c3)cc2O[C@H]1CN(C)C | 24.8 µM
C[C@@H]1CN([C@@H](C)CO)C(=O)Cc2cc(N(C)C)ccc2O[C@H]1CN(C)Cc1ccc(Oc2ccccc2)cc1 | 19.1 µM

Compound | AC50
CO[C@H]1CN(C)C(=O)c2ccc(NC(=O)Nc3cc(Cl)cc(Cl)c3)cc2OC[C@H](C)NC[C@H]1C | 14 µM
CO[C@H]1CN(C)C(=O)c2cc(NC(=O)Nc3ccc(Cl)c(Cl)c3)ccc2OC[C@H](C)NC[C@H]1C | 9.51 µM
CO[C@H]1CN(C)C(=O)c2cc(NC(=O)Nc3ccc(Cl)c(Cl)c3)ccc2OC[C@@H](C)NC[C@H]1C | 9.16 µM
O=C(C[C@@H]1CC[C@H]2[C@@H](COC[C@@H](O)CN2C(=O)Nc2cc(Cl)cc(Cl)c2)O1)N1CCOCC1 | 10.7 µM
C[C@H]1CCCCO[C@H](CN(C)Cc2ccccc2)[C@@H](C)CN([C@@H](C)CO)C(=O)c2cc(NC(=O)Nc3ccc(C(F)(F)F)cc3)ccc2O1 | 18.2 µM
C[C@@H]1CN([C@@H](C)CO)C(=O)c2cccc(NC(=O)Nc3ccc(C(F)(F)F)cc3)c2O[C@@H]1CN(C)C(=O)Nc1ccc(F)cc1 | 30 µM
C[C@H]1CCCCO[C@@H](CN(C)CC2CCCCC2)[C@@H](C)CN([C@@H](C)CO)C(=O)c2cc(NC(=O)Nc3ccc(C(F)(F)F)cc3)ccc2O1 | 17.3 µM
O=C(C[C@H]1CC[C@H]2[C@@H](COC[C@H](O)CN2S(=O)(=O)c2ccc(F)cc2)O1)NCC1CCCCC1 | 15.4 µM
O=C(C[C@H]1CC[C@H]2[C@@H](COC[C@@H](O)CN2C(=O)Nc2ccc(Cl)c(Cl)c2)O1)NCc1ccc(F)cc1 | 1.36 µM
O=C(C[C@@H]1CC[C@H]2[C@@H](COC[C@H](O)CN2C(=O)Nc2ccc(Cl)c(Cl)c2)O1)NCc1ccc(Cl)cc1 | 2.61 µM
CC(=O)N[C@H]1CC[C@@H](CCNC(=O)Nc2ccc(C(F)(F)F)cc2)O[C@@H]1CO | 10.8 µM
O=C(C[C@H]1CC[C@@H]2[C@H](COC[C@@H](O)CN2C(=O)Nc2ccc(Cl)c(Cl)c2)O1)NCc1ccccc1 | 4.01 µM
O=C(C[C@@H]1CC[C@@H]2[C@H](COC[C@H](O)CN2C(=O)Nc2ccc(Cl)c(Cl)c2)O1)NC1CCC1 | 7.33 µM
C[C@@H]1CCCCO[C@H](CN(C)Cc2ccc3c(c2)OCO3)[C@@H](C)CN([C@@H](C)CO)C(=O)c2cc(NS(=O)(=O)c3cccs3)ccc2O1 | 13.8 µM
O=C(C[C@H]1CC[C@@H]2[C@H](COC[C@@H](O)CN2S(=O)(=O)c2ccccc2)O1)NCC1CCCCC1 | 15.5 µM
O=C(NCC[C@H]1CC[C@@H](NC(=O)c2cccnc2)[C@H](CO)O1)Nc1ccc(C(F)(F)F)cc1 | 2.42 µM
CCCNC(=O)C[C@@H]1CC[C@@H]2[C@H](COC[C@H](O)CN2C(=O)Nc2ccc(Cl)c(Cl)c2)O1 | 3.54 µM
C[C@@H]1CN([C@H](C)CO)C(=O)Cc2cc(NC(=O)CCCN(C)C)ccc2O[C@H]1CN(C)Cc1ccc(-c2ccccc2)cc1 | 19 µM
C[C@@H]1CN([C@@H](C)CO)C(=O)c2cccc(NC(=O)Nc3ccc(C(F)(F)F)cc3)c2O[C@@H]1CN(C)Cc1ccccc1 | 3.65 µM
O=C(C[C@H]1CC[C@@H](NC(=O)CCN2CCCCC2)[C@H](CO)O1)Nc1nccs1 | > 60 µM (inactive)
O=C(C[C@H]1CC[C@@H]2[C@H](COC[C@H](O)CN2C(=O)Nc2ccc(C(F)(F)F)cc2)O1)NCCc1ccncc1 | 3.55 µM
CNC(=O)C[C@H]1CC[C@@H]2[C@H](COC[C@@H](O)CN2C(=O)Nc2ccc(Cl)c(Cl)c2)O1 | 8.58 µM
CO[C@@H]1CN(C)C(=O)c2ccc(NC(=O)Nc3cc(Cl)cc(Cl)c3)cc2OC[C@H](C)NC[C@@H]1C | 8.07 µM
COc1cccc(C#Cc2ccc3c(c2)O[C@@H](CN(C)C)[C@H](C)CN([C@H](C)CO)S3(=O)=O)c1 | 25.8 µM

Compound | AC50
COc1ccccc1CNC(=O)C[C@H]1CC[C@H]2[C@@H](COC[C@@H](O)CN2C(=O)Nc2ccc(C(F)(F)F)cc2)O1 | 2.4 µM
C[C@@H]1CN([C@@H](C)CO)C(=O)c2cc(NC(=O)C3CC3)ccc2O[C@@H]1CN(C)C(=O)Nc1ccc(C(F)(F)F)cc1 | 8.92 µM
CO[C@H](CN(C)Cc1cc(F)ccc1F)[C@H](C)CN(C(=O)Nc1ccc(C(F)(F)F)cc1)[C@H](C)CO | 10.3 µM
COCC(=O)N1C[C@H](C)[C@H](OC)CN(C)C(=O)c2ccc(NC(=O)NC(C)C)cc2OC[C@H]1C | > 60 µM (inactive)
C[C@H](NC(=O)C[C@H]1CC[C@@H]2[C@H](COC[C@H](O)CN2C(=O)Nc2cc(Cl)cc(Cl)c2)O1)c1ccccc1 | 11.5 µM
O=C(C[C@H]1CC[C@H]2[C@@H](COC[C@H](O)CN2C(=O)Nc2ccc(C(F)(F)F)cc2)O1)NCC1CCCCC1 | 2.45 µM
C[C@@H]1CCCCO[C@@H](CN(C)CC2CCCCC2)[C@H](C)CN([C@@H](C)CO)C(=O)c2cc(NC(=O)Nc3ccc(C(F)(F)F)cc3)ccc2O1 | 12.6 µM
O=C(C[C@@H]1CC[C@@H]2[C@H](COC[C@H](O)CN2C(=O)Nc2ccc(Cl)c(Cl)c2)O1)NCc1ccc(Cl)cc1 | 0.915 µM
CNC(=O)C[C@@H]1CC[C@H]2[C@@H](COC[C@@H](O)CN2C(=O)Nc2ccc(Cl)c(Cl)c2)O1 | 11.9 µM
CCC(=O)N[C@@H]1CC[C@H](CCNC(=O)Nc2ccc(C(F)(F)F)cc2)O[C@H]1CO | 7.27 µM
O=C(C[C@H]1CC[C@H]2[C@@H](COC[C@@H](O)CN2C(=O)Nc2ccc(C(F)(F)F)cc2)O1)NCC1CCCCC1 | 1.27 µM
C[C@H]1CCCCO[C@H](CN(C)CC2CC2)[C@@H](C)CN([C@@H](C)CO)C(=O)c2cc(NC(=O)Nc3ccc(C(F)(F)F)cc3)ccc2O1 | 5.12 µM
CCC(=O)N[C@H]1CC[C@@H](CCNC(=O)Nc2ccc(C(F)(F)F)cc2)O[C@H]1CO | 2.41 µM
O=C(NCC[C@@H]1CC[C@@H](NC(=O)C2CC2)[C@@H](CO)O1)Nc1ccc(C(F)(F)F)cc1 | 10.7 µM
CC(C)NC(=O)N1[C@H](CO)[C@@H](c2ccc(-c3ccc(F)cc3)cc2)[C@@H]1C#N | 22.6 µM
CO[C@@H](CN(C)C(=O)C1CCOCC1)[C@H](C)CN(C(=O)Nc1ccc(C(F)(F)F)cc1)[C@@H](C)CO | 3.45 µM
O=C(C[C@@H]1CC[C@@H]2[C@H](COC[C@H](O)CN2C(=O)Nc2ccc(Cl)c(Cl)c2)O1)NCc1ccccc1 | 2.01 µM
Cc1noc(C)c1S(=O)(=O)Nc1ccc2c(c1)C(=O)N([C@@H](C)CO)C[C@H](C)[C@@H](CN(C)Cc1ccc3c(c1)OCO3)OCCCC[C@@H](C)O2 | 11.7 µM
O=C(C[C@@H]1CC[C@H]2[C@@H](COC[C@@H](O)CN2C(=O)Nc2ccc(Cl)c(Cl)c2)O1)NCc1ccc(F)cc1 | 1.92 µM
CNC(=O)C[C@@H]1CC[C@@H]2[C@H](COC[C@H](O)CN2C(=O)Nc2ccc(Cl)c(Cl)c2)O1 | 3.06 µM
CC(=O)N[C@H]1CC[C@H](CCNC(=O)Nc2ccc(C(F)(F)F)cc2)O[C@H]1CO | 4.52 µM
CCC(=O)N[C@@H]1CC[C@@H](CCNC(=O)Nc2ccc(C(F)(F)F)cc2)O[C@@H]1CO | 3.9 µM
C[C@@H]1CCCCO[C@@H](CN(C)CC2CCCCC2)[C@@H](C)CN([C@@H](C)CO)C(=O)c2cc(NC(=O)Nc3ccc(C(F)(F)F)cc3)ccc2O1 | 10.7 µM
C[C@H](CO)N1C[C@H](C)[C@H](CN(C)C(=O)Nc2cccc3ccccc23)Oc2c(NC(=O)Nc3ccc(C(F)(F)F)cc3)cccc2C1=O | 31.7 µM
